Measurements published in DBAASP.
In brackets after ≈: the same amount, converted by molar mass.

What was measured:
Assay in all cases: ≥ marks a high value that may be exact or a test limit, other limits are often not marked, values filed in µg/mL are converted to µM
[1] = test system: Pseudomonas aeruginosa PAO1
[2] = test system: Staphylococcus epidermidis
[3] = test system: Staphylococcus aureus ATCC 6538P
Escherichia coli BL21 = test system: Escherichia coli BL21
[4] = test system: Staphylococcus aureus ATCC BAA-41
[5] = test system: Pseudomonas aeruginosa Z61
[6] = test system: Salmonella enterica subsp. enterica serovar Typhimurium ATCC 14028s
[7] = test system: Pseudomonas aeruginosa H744
Escherichia coli UB1005 = test system: Escherichia coli UB1005
[8] = test system: Pseudomonas aeruginosa K799
[9] = test system: Pseudomonas aeruginosa H547
[10] = test system: Burkholderia cepacia ATCC 25416
[11] = test system: Pseudomonas aeruginosa H374
[12] = test system: Enterococcus faecalis PCM 2673
[13] = test system: Pseudomonas aeruginosa ATCC 9027
[14] = test system: Staphylococcus aureus ATCC 25923
[15] = test system: Candida albicans ATCC 10231
[16] = test system: Escherichia coli ATCC 25922
[17] = test system: Pseudomonas aeruginosa Ps4
[18] = test system: Klebsiella aerogenes ATCC 13048
[19] = test system: Staphylococcus aureus ATCC 29231
[20] = test system: Pseudomonas aeruginosa PA14
[21] = test system: Staphylococcus aureus SH1000
[22] = test system: Candida albicans ATCC 90028
[23] = test system: Cryptococcus neoformans ATCC 208821
[24] = test system: Pseudomonas aeruginosa ATCC 27853
[25] = test system: Staphylococcus aureus ATCC 43300
[26] = test system: Acinetobacter baumannii ATCC 19606
[27] = test system: Klebsiella pneumoniae ATCC 700603

`CC[C@H](C)[C@H](NC(=O)[C@H](CCCCN)NC(=O)[C@H](CCCCN)NC(=O)[C@H](Cc1ccccc1)NC(=O)[C@H](CCCCN)NC(=O)[C@H](CCCCN)NC(=O)[C@H](Cc1c[nH]c2ccccc12)NC(=O)[C@@H](N)CCCCN)C(=O)NCC(=O)N[C@@H](CCCCN)C(=O)N[C@H](C(=O)N[C@@H](CC(C)C)C(=O)N[C@@H](CCCCN)C(=O)N[C@H](C(=O)N[C@@H](CC(C)C)C(=O)O)C(C)C)C(C)C` [KWKKFKKIGKVLKVL] gave an MIC [1] of 0.707 µM (≈ 1.3 µg/mL), an MIC [2] of 0.25 µM (≈ 0.461 µg/mL) and an MIC [3] of 16 µM (≈ 29.5 µg/mL). For the same molecule, the MIC (Escherichia coli BL21) was 0.5 µM (≈ 0.922 µg/mL) and the MIC [4] was 16 µM (≈ 29.5 µg/mL).
In the case of `CC[C@H](C)[C@H](NC(=O)[C@H](Cc1ccccc1)NC(=O)[C@H](CO)NC(=O)[C@H](CCCCN)NC(=O)[C@H](Cc1c[nH]c2ccccc12)NC(=O)[C@@H](N)CCCCN)C(=O)N[C@@H](CCCCN)C(=O)N[C@@H](CCCCN)C(=O)N[C@@H](CC(C)C)C(=O)N[C@H](C(=O)N[C@@H](CO)C(=O)N[C@@H](C)C(=O)N[C@@H](C)C(=O)N[C@@H](CCCCN)C(=O)N[C@@H](CCCCN)C(=O)N[C@H](C(=O)N[C@H](C(=O)N[C@H](C(=O)N[C@@H](C)C(=O)N[C@@H](C)C(=O)N[C@@H](CCCCN)C(=O)N1CCC[C@H]1C(=O)N[C@@H](CC(C)C)C(=O)N[C@H](C(=O)N[C@@H](CCCCN)C(=O)O)[C@@H](C)O)[C@@H](C)O)[C@@H](C)O)C(C)C)[C@@H](C)O` [KWKSFIKKLTSAAKKVTTAAKPLTK], the MIC [5] is reported as 8.65 µM (≈ 24 µg/mL), the MIC [6] is reported as 15.5 µM (≈ 43 µg/mL) and the MIC [7] is reported as 2.88 µM (≈ 8 µg/mL). It also gave an MIC (Escherichia coli UB1005) of 0.721 µM (≈ 2 µg/mL), an MIC [8] of 23.1 µM (≈ 64 µg/mL) and an MIC [9] of 5.76 µM (≈ 16 µg/mL). For the same molecule, the MIC [10] was 23.1 µM (≈ 64 µg/mL) and the MIC [11] was 2.88 µM (≈ 8 µg/mL).
With `CC[C@H](C)[C@H](NC(=O)[C@H](C)NC(=O)[C@H](CC(=O)O)NC(=O)[C@H](Cc1ccccc1)NC(=O)[C@H](CC(C)C)NC(=O)CN)C(=O)N[C@@H](CCCCN)C(=O)N[C@@H](CCCCN)C(=O)N[C@H](C(=O)N[C@@H](C)C(=O)N[C@@H](CCC(=O)O)C(=O)N[C@@H](CO)C(=O)N[C@@H](Cc1ccccc1)C(N)=O)[C@@H](C)CC` [GLFDAIKKIAESF] the MIC [12] was at least 89 µM, the MIC [13] was 356 µM (≈ 512 µg/mL) and the MIC [14] was over 356 µM. For the same molecule, the MIC [15] was 178 µM (≈ 256 µg/mL) and the MIC [16] was 178 µM (≈ 256 µg/mL).
Work on `CC[C@H](C)[C@H](NC(=O)CNC(=O)[C@@H](NC(=O)[C@H](CCCCN)NC(=O)[C@H](CCCCN)NC(=O)[C@H](Cc1ccccc1)NC(=O)[C@H](CC(C)C)NC(=O)[C@H](CCCCN)NC(=O)[C@H](Cc1c[nH]c2ccccc12)NC(=O)[C@@H](N)CCCCN)[C@@H](C)CC)C(=O)NCC(=O)N[C@@H](C)C(=O)N[C@H](C(=O)N[C@@H](CC(C)C)C(=O)N[C@@H](CCCCN)C(=O)N[C@H](C(=O)N[C@@H](CC(C)C)C(=O)N[C@H](C(=O)N[C@H](C(=O)NCC(=O)N[C@@H](CC(C)C)C(=O)N1CCC[C@H]1C(=O)N[C@@H](C)C(=O)N[C@@H](CC(C)C)C(=O)N[C@@H](CCCCN)C(=O)N[C@@H](CC(C)C)C(=O)N[C@H](C(=O)N[C@@H](CC(C)C)C(=O)N[C@@H](CCCCN)C(=O)O)[C@@H](C)O)[C@@H](C)O)[C@@H](C)O)C(C)C)C(C)C` [KWKLFKKIGIGAVLKVLTTGLPALKLTLK] yielded an MIC [5] of 0.944 µM (≈ 3 µg/mL), an MIC [6] of 0.944 µM (≈ 3 µg/mL) and an MIC [7] of 1.26 µM (≈ 4 µg/mL). It also gave an MIC (Escherichia coli UB1005) of 0.944 µM (≈ 3 µg/mL), an MIC [8] of 1.26 µM (≈ 4 µg/mL) and an MIC [9] of 1.26 µM (≈ 4 µg/mL). It also gave an MIC [10] of 20.1 µM (≈ 64 µg/mL).
In the case of `NC(=O)CC[C@H](NC(=O)[C@H](Cc1c[nH]c2ccccc12)NC(=O)[C@@H](N)Cc1ccccc1)C(=O)N[C@@H](CCCN=C(N)N)C(=O)N[C@@H](CC(N)=O)C(=O)N[C@@H](Cc1c[nH]c2ccccc12)C(=O)N[C@@H](CCCN=C(N)N)C(=O)N[C@@H](Cc1c[nH]c2ccccc12)C(=O)N[C@@H](CCCN=C(N)N)C(=O)N[C@@H](CCCN=C(N)N)C(N)=O` [FWQRNWRWRR], the MIC [17] is reported as at least 157 µM.
`CC[C@H](C)[C@H](NC(=O)[C@H](CCCCN)NC(=O)[C@H](CCCCN)NC(=O)[C@H](Cc1ccccc1)NC(=O)[C@H](CCCCN)NC(=O)[C@H](CCCCN)NC(=O)[C@H](Cc1c[nH]c2ccccc12)NC(=O)[C@@H](N)CCCCN)C(=O)NCC(=O)N[C@@H](C)C(=O)N[C@H](C(=O)N[C@@H](CC(C)C)C(=O)N[C@@H](CCCCN)C(=O)N[C@H](C(=O)N[C@@H](CC(C)C)C(=O)O)C(C)C)C(C)C` [KWKKFKKIGAVLKVL] showed an MIC [1] of 0.707 µM (≈ 1.26 µg/mL), an MIC [2] of 0.5 µM (≈ 0.893 µg/mL) and an MIC [3] of 16 µM (≈ 28.6 µg/mL). The MIC (Escherichia coli BL21) was 0.354 µM (≈ 0.632 µg/mL) and the MIC [4] was 16 µM (≈ 28.6 µg/mL).
`CC[C@H](C)[C@H](NC(=O)[C@H](CCCCN)NC(=O)[C@H](CCCCN)NC(=O)[C@@H](NC(=O)[C@@H](NC(=O)[C@H](CC(=O)O)NC(=O)[C@H](C)NC(=O)[C@H](CC(C)C)NC(=O)CN)[C@@H](C)CC)[C@@H](C)CC)C(=O)N[C@@H](C)C(=O)N[C@@H](CCC(=O)O)C(=O)N[C@@H](CO)C(=O)N[C@@H](Cc1ccccc1)C(N)=O` [GLADIIKKIAESF] was tested, and the MIC [12] was at least 182 µM, the MIC [13] was 365 µM (≈ 512 µg/mL) and the MIC [14] was 365 µM (≈ 512 µg/mL). It also gave an MIC [15] of 91.1 µM (≈ 128 µg/mL) and an MIC [16] of 91.1 µM (≈ 128 µg/mL).
`CC[C@H](C)[C@H](NC(=O)[C@H](CCCCN)NC(=O)[C@H](Cc1c[nH]c2ccccc12)NC(=O)[C@H](CC(C)C)NC(=O)[C@@H](NC(=O)[C@H](CCCCN)NC(=O)[C@H](Cc1c[nH]c2ccccc12)NC(=O)[C@@H](N)CC(C)C)[C@@H](C)CC)C(=O)N[C@@H](Cc1c[nH]c2ccccc12)C(=O)N[C@@H](CCCN=C(N)N)C(=O)N[C@H](C(=O)N[C@@H](CC(C)C)C(=O)N[C@@H](CCCCN)C(=O)N[C@@H](CC(N)=O)C(=O)N[C@@H](Cc1c[nH]c2ccccc12)C(=O)N[C@@H](CCCN=C(N)N)C(=O)O)C(C)C` [LWKILWKIWRVLKNWR] was tested, and the MIC [18] was at least 57.2 µM, the MIC [19] was 28.6 µM (≈ 64 µg/mL) and the MIC [20] was at least 57.2 µM. For the same molecule, the MIC [15] was over 57.2 µM.
`CC(C)C[C@H](NC(=O)[C@H](C)NC(=O)[C@H](CCCCN)NC(=O)[C@H](CC(C)C)NC(=O)[C@H](CC(C)C)NC(=O)[C@H](CCCCN)NC(=O)[C@H](CCCCN)NC(=O)[C@H](CC(C)C)NC(=O)[C@H](CC(C)C)NC(=O)[C@H](CCCCN)NC(=O)[C@H](CC(C)C)NC(=O)[C@H](CC(C)C)NC(=O)[C@@H](N)CCCCN)C(=O)NCC(N)=O` [KLLKLLKKLLKALG] showed an MIC [21] of at least 33 µM, an MIC [22] of 20 µM (≈ 31.6 µg/mL) and an MIC [23] of 3 µM (≈ 4.73 µg/mL). It also gave an MIC [24] of over 20 µM, an MIC [25] of 10 µM (≈ 15.8 µg/mL) and an MIC [26] of 1 µM (≈ 1.58 µg/mL). The MIC [16] was 20 µM (≈ 31.6 µg/mL) and the MIC [27] was over 20 µM.
Molecule `CC[C@H](C)[C@H](NC(=O)[C@H](CCCN=C(N)N)NC(=O)[C@@H](NC(=O)[C@H](CC(N)=O)NC(=O)[C@H](CCCN=C(N)N)NC(=O)[C@H](Cc1c[nH]c2ccccc12)NC(=O)[C@@H](N)Cc1ccccc1)[C@@H](C)CC)C(=O)N[C@@H](Cc1c[nH]c2ccccc12)C(=O)N[C@@H](CCCN=C(N)N)C(=O)N[C@@H](CCCN=C(N)N)C(N)=O` [FWRNIRIWRR] has an MIC [17] of at least 166 µM.
Work on `CC(C)C[C@H](NC(=O)[C@H](C)NC(=O)CNC(=O)[C@@H](NC(=O)[C@@H](NC(=O)[C@H](CCCCN)NC(=O)[C@H](CCCCN)NC(=O)[C@@H](NC(=O)[C@H](CC(C)C)NC(=O)[C@H](CCCCN)NC(=O)[C@H](CC(C)C)NC(=O)[C@H](CC(C)C)NC(=O)[C@@H](N)CCCCN)C(C)C)C(C)C)C(C)C)C(=O)NCC(N)=O` [KLLKLVKKVVGALG] yielded an MIC [21] of at least 33 µM, an MIC [22] of 22 µM (≈ 32.2 µg/mL) and an MIC [23] of 22 µM (≈ 32.2 µg/mL). It also gave an MIC [24] of over 22 µM, an MIC [25] of over 22 µM and an MIC [26] of over 22 µM. It also gave an MIC [16] of over 22 µM and an MIC [27] of over 22 µM.
